According to ChEMBL document CHEMBL1201862, “PubChem BioAssay data set” (2004):
Calls of active or inactive are those of the source.

Tests used:
Galanin receptor type 3 = biological target: T1, Galanin receptor type 3 (Homo sapiens, UniProt O60755); assay: Fluorescence-based cell-based primary high throughput dose response assay to identify antagonists of the Galanin Receptor 3 (GalR3).; assay type: functional
T1 sequence (O60755 whole entry): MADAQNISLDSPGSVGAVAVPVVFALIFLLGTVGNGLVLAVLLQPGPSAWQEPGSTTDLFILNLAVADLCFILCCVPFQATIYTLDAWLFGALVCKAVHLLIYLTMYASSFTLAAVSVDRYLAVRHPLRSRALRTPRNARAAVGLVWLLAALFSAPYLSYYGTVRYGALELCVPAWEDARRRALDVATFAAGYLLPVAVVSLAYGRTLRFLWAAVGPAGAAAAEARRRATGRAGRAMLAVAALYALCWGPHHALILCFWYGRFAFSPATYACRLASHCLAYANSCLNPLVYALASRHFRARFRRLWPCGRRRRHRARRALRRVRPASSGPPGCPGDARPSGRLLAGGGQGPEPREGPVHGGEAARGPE

cells [1] = assay type: functional, cell-based; details: HEK-CNG
Protein RecA = biological target: T2, Protein RecA (Mycobacterium tuberculosis, UniProt P9WHJ3); assay: Fluorescence Cell-Free Homogeneous Dose Retest to Identify Inhibitors of RecA-Intein Splicing Activity. [Related pubchem assays (depositor defined):AID2097, AID2223, AID489010, AID492950]; assay type: functional
T2 sequence (P9WHJ3 whole entry): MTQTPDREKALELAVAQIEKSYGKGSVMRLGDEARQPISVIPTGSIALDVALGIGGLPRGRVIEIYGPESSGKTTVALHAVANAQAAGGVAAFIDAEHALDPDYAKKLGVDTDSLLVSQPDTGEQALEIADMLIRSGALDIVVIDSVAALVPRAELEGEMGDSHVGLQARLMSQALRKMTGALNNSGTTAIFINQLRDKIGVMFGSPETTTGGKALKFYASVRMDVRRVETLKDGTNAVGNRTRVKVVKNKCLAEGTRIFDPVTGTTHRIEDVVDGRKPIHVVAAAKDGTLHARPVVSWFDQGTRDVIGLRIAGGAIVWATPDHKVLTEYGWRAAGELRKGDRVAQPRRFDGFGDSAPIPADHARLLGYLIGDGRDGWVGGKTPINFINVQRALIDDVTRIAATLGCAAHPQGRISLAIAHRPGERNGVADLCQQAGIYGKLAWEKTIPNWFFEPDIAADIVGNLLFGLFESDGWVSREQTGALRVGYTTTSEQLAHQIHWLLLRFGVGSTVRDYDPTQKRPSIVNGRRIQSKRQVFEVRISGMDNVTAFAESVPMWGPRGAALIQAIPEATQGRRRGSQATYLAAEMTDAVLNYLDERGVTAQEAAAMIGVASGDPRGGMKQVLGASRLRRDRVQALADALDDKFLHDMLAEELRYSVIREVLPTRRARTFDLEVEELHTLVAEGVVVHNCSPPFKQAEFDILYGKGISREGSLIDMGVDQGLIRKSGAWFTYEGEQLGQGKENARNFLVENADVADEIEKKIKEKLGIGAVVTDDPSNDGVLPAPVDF

[2] = biological target: T3, Replicative DNA helicase DnaB (Mycobacterium tuberculosis, UniProt P9WMR3); assay: DnaB intein splicing inhibitors, dose response, biochemical, cell-free fluorescence (AID 449749); assay type: functional
T3 sequence (P9WMR3 whole entry): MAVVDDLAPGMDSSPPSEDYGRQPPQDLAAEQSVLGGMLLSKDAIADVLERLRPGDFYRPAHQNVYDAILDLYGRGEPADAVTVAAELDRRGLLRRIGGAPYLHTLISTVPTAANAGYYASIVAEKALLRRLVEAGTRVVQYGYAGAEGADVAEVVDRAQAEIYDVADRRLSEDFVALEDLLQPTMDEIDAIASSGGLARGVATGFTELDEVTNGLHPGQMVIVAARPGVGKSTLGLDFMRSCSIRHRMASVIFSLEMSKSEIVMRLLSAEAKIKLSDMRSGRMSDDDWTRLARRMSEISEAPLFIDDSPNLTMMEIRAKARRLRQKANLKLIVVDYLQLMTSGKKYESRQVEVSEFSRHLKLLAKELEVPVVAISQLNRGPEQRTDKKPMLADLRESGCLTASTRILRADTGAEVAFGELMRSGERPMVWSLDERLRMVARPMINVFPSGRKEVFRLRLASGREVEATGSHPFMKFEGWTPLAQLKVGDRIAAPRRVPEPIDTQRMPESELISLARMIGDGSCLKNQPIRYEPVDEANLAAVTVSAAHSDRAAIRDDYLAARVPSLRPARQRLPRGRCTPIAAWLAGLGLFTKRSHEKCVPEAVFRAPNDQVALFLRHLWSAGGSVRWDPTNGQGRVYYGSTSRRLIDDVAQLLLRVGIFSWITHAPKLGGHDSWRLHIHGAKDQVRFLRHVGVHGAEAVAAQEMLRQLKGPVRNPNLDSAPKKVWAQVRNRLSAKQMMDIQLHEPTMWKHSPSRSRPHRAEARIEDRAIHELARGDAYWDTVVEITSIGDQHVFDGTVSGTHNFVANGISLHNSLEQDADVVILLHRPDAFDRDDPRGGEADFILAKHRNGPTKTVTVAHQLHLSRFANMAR

INS1 = assay: beta cell apoptosis inhibitors, cytokine rescue, dose response, luminescence, retest (AID 449756); assay type: functional, cell-based; details: Rattus norvegicus;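 further: cell death triggered by IL-1 beta plus TNF-alpha plus IFN-gamma mixture; protective hits raise ATP signal compared with cytokine alone wells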
[3] = human group III sPLA2 inhibitors, dose response, biochemical, QFRET, IC50 (AID 743457);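 further: green fluorescence rise as the enzyme cleaves BODIPY PC-A2 in liposomes; potency for inhibition of the enzyme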
fMet-Leu-Phe receptor = biological target: T4, fMet-Leu-Phe receptor (Homo sapiens, UniProt P21462); assay: FPR ligands, dose response (AID 519); assay type: functional
T4 sequence (P21462 whole entry): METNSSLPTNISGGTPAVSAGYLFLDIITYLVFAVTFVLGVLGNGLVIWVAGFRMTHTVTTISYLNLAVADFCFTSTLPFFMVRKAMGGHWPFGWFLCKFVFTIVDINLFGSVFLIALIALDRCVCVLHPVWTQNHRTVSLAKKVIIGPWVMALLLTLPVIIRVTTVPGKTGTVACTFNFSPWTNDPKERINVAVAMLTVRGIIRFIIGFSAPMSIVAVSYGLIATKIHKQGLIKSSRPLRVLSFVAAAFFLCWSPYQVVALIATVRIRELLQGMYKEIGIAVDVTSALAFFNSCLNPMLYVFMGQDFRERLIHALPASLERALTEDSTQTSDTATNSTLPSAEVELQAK

Nonstructural protein 1 = Nonstructural protein 1 (Influenza A virus, UniProt Q194T2); assay type: functional, Influenza A virus (A/California/07/2009(H1N1))
Sequence of Nonstructural protein 1 (Q194T2 whole entry): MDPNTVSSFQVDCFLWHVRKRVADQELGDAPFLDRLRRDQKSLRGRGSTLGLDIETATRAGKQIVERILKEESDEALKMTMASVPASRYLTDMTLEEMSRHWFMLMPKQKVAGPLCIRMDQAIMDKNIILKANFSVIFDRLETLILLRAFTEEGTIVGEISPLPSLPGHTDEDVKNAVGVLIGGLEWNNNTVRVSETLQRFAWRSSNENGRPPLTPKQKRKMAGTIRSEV

[4] = biological target: T5, Rac GTPase-activating protein 1 (Homo sapiens, UniProt Q9H0H5); assay: MgcRacGAP GTPase-activating activity inhibitors, confirmation, biochemical, ADP Hunter fluorescence, primary and confirmatory (AID 624330); assay type: functional
T5 sequence (Q9H0H5 whole entry): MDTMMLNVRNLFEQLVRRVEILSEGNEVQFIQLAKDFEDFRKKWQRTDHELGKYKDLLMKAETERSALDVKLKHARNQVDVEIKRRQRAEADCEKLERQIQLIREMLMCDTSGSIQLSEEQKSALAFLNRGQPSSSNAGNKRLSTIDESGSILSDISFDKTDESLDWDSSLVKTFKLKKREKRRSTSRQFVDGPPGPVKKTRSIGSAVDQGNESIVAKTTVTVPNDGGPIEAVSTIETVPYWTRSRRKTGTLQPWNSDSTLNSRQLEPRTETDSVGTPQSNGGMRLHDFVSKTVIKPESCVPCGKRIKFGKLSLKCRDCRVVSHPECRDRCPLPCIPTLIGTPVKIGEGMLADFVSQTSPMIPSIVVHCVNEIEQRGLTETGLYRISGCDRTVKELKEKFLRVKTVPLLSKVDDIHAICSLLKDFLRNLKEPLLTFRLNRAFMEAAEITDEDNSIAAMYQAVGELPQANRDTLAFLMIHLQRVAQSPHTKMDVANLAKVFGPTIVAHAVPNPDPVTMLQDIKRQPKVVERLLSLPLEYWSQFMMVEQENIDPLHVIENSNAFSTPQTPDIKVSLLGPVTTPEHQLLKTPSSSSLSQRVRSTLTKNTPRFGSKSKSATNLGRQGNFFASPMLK

[5] = LGR2 antagonists, dose response, cell-based, HEK293, CRE-luciferase reporter, cherry pick, set 2 (AID 743343); assay type: functional;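 further: transfected cells were stimulated with diluted bursicon conditioned medium after compound addition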
[6] = MC4R antagonists, dose response, counter-screen for LGR2 antagonist project, cell-based, plate reader, cherry pick (AID 743444); assay type: functional;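 further: transfected HEK 293 cells stimulated with alpha-MSH peptide; potency of inhibitors of the alpha-MSH evoked signal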
HEK293 = assay: inhibitors of LMP1-driven NF-kB reporter, dose response, cell-based, HEK293, luciferase, cherry-pick (AID 588343); assay type: functional; details: Homo sapiens
[7] = A549 cell cytotoxicity, dose response, cytotoxicity control, plate reader, cherry-pick, antagonist series (AID 743412); assay type: functional, cell-based
[8] = HepG2 cell cytotoxicity, dose response, cytotoxicity control, plate reader, cherry-pick, antagonist series (AID 743416); assay type: functional, cell-based
[9] = biological target: Peroxisome proliferator-activated receptor gamma/Nuclear receptor coactivator 3 (Homo sapiens, UniProt P37231); assay: TR-FRET dose response biochemical High Throughput Screening assay for agonists of the steroid receptor coactivator 3 (SRC-3) recruitment by the peroxisome proliferator-activated receptor gamma (PPAR gamma): non-selective agonists. [Related pubchem assays: 1301 (Confirmation screen.), 1048 (Primary screen.)]; assay type: functional
Sequence of Peroxisome proliferator-activated receptor gamma/Nuclear receptor coactivator 3 (P37231 whole entry): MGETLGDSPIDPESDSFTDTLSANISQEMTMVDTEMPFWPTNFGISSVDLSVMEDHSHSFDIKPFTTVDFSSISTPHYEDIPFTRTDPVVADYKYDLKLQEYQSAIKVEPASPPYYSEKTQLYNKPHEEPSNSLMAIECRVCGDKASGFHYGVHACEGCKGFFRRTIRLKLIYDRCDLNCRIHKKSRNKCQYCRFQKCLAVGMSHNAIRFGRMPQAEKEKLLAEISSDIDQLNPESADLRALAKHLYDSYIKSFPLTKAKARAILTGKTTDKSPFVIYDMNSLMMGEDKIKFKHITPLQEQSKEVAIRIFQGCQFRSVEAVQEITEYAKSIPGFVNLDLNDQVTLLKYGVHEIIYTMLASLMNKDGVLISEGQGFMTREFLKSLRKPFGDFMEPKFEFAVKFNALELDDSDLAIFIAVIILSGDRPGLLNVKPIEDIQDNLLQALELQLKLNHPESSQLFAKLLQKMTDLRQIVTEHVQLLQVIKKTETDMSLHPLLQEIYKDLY
Sequence of Peroxisome proliferator-activated receptor gamma/Nuclear receptor coactivator 3 (Q9Y6Q9 whole entry, further chain): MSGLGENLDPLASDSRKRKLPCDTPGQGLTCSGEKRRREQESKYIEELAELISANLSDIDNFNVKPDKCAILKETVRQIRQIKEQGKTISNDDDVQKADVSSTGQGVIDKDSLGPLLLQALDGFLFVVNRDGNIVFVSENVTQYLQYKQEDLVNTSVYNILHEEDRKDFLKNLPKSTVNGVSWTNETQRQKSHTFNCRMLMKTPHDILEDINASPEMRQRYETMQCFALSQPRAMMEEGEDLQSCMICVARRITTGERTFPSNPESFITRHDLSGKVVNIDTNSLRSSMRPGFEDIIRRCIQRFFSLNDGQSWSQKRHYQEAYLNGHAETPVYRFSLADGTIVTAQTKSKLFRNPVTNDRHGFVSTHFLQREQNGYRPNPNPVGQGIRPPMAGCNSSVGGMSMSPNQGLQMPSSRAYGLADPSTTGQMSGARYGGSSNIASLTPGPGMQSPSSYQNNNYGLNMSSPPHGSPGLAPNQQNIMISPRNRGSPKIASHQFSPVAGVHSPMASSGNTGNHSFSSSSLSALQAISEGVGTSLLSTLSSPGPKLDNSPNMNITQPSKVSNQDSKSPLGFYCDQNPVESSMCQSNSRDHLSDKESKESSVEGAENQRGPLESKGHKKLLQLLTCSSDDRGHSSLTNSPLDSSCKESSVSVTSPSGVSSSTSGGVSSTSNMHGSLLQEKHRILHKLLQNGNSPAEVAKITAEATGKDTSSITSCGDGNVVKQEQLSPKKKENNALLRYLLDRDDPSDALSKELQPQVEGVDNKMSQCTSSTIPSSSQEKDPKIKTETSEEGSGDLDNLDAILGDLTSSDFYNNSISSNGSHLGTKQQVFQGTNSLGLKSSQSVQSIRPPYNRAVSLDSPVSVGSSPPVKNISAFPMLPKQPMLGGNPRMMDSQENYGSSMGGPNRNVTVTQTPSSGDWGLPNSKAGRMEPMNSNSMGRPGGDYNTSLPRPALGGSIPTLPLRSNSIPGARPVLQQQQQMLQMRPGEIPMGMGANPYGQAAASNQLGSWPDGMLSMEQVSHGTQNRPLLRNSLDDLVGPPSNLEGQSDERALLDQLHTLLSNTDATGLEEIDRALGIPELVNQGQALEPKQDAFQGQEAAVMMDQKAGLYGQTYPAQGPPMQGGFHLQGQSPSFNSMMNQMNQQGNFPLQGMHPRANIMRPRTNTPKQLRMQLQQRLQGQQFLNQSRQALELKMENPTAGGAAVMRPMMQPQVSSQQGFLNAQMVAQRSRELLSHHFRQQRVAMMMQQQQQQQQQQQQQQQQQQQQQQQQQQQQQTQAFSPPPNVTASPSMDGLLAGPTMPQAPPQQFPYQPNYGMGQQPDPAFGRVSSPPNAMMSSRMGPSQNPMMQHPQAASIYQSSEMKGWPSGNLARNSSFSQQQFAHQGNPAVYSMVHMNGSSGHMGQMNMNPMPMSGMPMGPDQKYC

[10] = biological target: Peroxisome proliferator-activated receptor gamma/Nuclear receptor coactivator 1 (Homo sapiens, UniProt P37231); assay: TR-FRET dose response biochemical High Throughput Screening assay for agonists of the steroid receptor coactivator 1 (SRC-1) recruitment by the peroxisome proliferator-activated receptor gamma (PPAR gamma): non-selective agonists. [Related pubchem assays (depositor defined):AID1300, AID1808, AID504735, AID631]; assay type: protein assay
Sequence of Peroxisome proliferator-activated receptor gamma/Nuclear receptor coactivator 1 (P37231 whole entry): as the sequence (P37231 whole entry) above
Sequence of Peroxisome proliferator-activated receptor gamma/Nuclear receptor coactivator 1 (Q15788 whole entry, further chain): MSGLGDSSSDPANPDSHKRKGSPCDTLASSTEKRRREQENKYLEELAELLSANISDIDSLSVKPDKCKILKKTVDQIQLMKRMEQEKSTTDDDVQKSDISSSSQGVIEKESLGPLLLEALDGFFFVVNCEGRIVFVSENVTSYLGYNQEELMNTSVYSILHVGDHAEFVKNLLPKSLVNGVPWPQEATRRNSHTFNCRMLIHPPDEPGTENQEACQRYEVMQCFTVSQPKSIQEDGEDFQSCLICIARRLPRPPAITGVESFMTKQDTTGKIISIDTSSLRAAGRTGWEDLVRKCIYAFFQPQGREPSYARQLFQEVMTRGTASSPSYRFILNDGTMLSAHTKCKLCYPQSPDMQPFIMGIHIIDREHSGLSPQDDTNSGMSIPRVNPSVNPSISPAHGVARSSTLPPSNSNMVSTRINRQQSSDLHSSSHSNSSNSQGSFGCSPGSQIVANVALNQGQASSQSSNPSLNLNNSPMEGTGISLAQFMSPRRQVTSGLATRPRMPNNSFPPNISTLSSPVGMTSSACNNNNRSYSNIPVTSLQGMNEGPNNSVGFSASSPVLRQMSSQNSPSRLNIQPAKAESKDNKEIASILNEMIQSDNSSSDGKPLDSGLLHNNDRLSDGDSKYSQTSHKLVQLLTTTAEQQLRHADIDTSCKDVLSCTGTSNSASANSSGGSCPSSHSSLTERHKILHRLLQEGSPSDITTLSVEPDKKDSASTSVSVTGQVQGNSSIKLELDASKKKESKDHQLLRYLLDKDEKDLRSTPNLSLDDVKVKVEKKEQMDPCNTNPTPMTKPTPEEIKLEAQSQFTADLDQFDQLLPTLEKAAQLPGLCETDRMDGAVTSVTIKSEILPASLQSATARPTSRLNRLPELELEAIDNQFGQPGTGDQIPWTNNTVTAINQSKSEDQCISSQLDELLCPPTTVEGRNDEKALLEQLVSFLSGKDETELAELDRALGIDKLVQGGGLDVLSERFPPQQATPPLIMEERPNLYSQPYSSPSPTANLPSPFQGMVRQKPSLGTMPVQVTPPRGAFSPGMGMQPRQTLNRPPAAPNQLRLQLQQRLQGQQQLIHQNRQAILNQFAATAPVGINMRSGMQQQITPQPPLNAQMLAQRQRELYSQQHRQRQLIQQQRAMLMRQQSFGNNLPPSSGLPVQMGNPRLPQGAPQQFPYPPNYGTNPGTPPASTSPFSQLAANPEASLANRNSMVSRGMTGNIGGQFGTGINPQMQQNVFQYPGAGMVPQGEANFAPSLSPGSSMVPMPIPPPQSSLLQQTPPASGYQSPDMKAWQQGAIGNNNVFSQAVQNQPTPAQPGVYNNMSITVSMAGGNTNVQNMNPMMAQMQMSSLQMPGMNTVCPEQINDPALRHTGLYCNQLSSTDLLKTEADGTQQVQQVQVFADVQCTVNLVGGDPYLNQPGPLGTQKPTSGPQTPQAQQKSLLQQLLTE

[11] = biological target: Peroxisome proliferator-activated receptor gamma/Nuclear receptor coactivator 2 (Homo sapiens, UniProt P37231); assay: TR-FRET dose response biochemical High Throughput Screening assay for agonists of the steroid receptor coactivator 2 (SRC-2) recruitment by the peroxisome proliferator-activated receptor gamma (PPAR gamma): non-selective agonists. [Related pubchem assays: 1297, 1032 ]; assay type: functional
[12] = biological target: T6, Trace amine-associated receptor 1 (Homo sapiens, UniProt Q96RJ0); assay: Fluorescence-based cell-based high throughput dose response assay to identify agonists of the human trace amine associated receptor 1 (TAAR1).; assay type: functional
T6 sequence (Q96RJ0 whole entry): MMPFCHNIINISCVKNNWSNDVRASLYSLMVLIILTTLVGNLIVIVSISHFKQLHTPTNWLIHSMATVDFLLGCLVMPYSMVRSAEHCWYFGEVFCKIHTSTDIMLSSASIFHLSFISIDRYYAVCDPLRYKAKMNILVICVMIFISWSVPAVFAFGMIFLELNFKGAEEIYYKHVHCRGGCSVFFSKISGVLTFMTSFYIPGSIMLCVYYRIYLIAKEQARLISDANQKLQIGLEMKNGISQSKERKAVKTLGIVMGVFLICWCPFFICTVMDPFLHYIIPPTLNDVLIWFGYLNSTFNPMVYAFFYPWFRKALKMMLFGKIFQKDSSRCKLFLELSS

cells [13] = assay type: functional, cell-based
cells [14] = assay type: functional, cell-based; remark: listed apart in the source
[15] = biological target: T6, Trace amine-associated receptor 1; assay: Counterscreen for agonists of the human trace amine associated receptor 1 (hTAAR1): Fluorescence-based cell-based high throughput dose response assay to identify hTAAR1 agonist that also desensitize TAAR1 receptor response.; assay type: functional

COCCn1c(SCCCC(=O)c2ccc(Br)cc2)nnc1-c1ccncc1
IC50 (Galanin receptor type 3): 5.94 µM (active) | EC50 (cells [1]): > 29.9 µM (inactive)

Cc1onc(-c2ccccc2)c1-c1nc2ccccc2c(=O)o1
EC50 (Protein RecA): 1.11 µM (active) | IC50 (Galanin receptor type 3): > 29.9 µM (inactive) | EC50 (cells [1]): > 29.9 µM (inactive) | AC50 [2]: 1.31 µM (active)

Cc1ccc(C(=O)NC(=S)/C=C2\N(C)c3ccccc3C2(C)C)cc1
AC50 (INS1): 2.33 µM (active) | IC50 [3]: > 122 µM (inactive)

COc1cc(C2C(C(=O)c3ccc(C)o3)=C(O)C(=O)N2Cc2cccnc2)ccc1O (stereo not drawn)
Ki (fMet-Leu-Phe receptor): > 66.7 µM (inactive)

CCOC(=O)CCN(c1ccccc1)S(=O)(=O)c1ccc(-c2ccc(O)nn2)s1
IC50 (Galanin receptor type 3): 4.41 µM (active) | EC50 (cells [1]): > 29.9 µM (inactive)

COc1cc(OC)c(C2Nc3cccc4cccc(c34)N2)c(OC)c1
IC50 (Nonstructural protein 1): > 100 µM (active) | IC50 [3]: 83.1 µM (inactive) | IC50 [4]: 65.2 µM (active)

CSCCC1C(C#N)=C(N)Oc2[nH]nc(-c3cccs3)c21 (stereo not drawn)
EC50 (Protein RecA): 1.43 µM (active) | AC50 [2]: 3.12 µM (active) | Ki (fMet-Leu-Phe receptor): > 66.7 µM (inactive)

Cc1ccc(C(=O)NCCc2cccs2)cc1
AC50 [5]: 3.13 µM (active) | AC50 [6]: 3.74 µM (active) | AC50 (HEK293): 2.28 µM (active) | AC50 [7]: > 52 µM (inactive) | AC50 [8]: > 52 µM (inactive)

COc1cccc(C2C(C(=O)c3ccc(OC)c(OC)c3)=C(O)C(=O)N2c2cc(C)on2)c1 (stereo not drawn)
EC50 [9]: > 79.4 µM (not active) | EC50 [10]: > 79.4 µM (inactive) | EC50 [11]: > 79.4 µM (not active) | Ki (fMet-Leu-Phe receptor): > 66.7 µM (inactive)

CC/C(NCCc1ccccc1)=C1/C(=O)NC(=O)N(C2CCCCC2)C1=O
EC50 [12]: 2.87 µM (active) | EC50 (cells [13]): > 29.9 µM (inactive) | IC50 (cells [14]): > 29.9 µM (inactive) | IC50 [15]: 6.23 µM (active)

Cc1cccc(C(CC(=O)NCCc2ccccc2)c2ccccc2)c1O (stereo not drawn)
EC50 [12]: 3.5 µM (active) | EC50 (cells [13]): > 29.9 µM (inactive) | IC50 (cells [14]): > 29.9 µM (inactive) | IC50 [15]: 4.62 µM (active)

CN(CCc1ccccc1)c1cc2c(c3c1ccn3C)C1CCC2O1 (stereo not drawn)
EC50 [12]: 1.18 µM (active) | EC50 (cells [13]): > 29.9 µM (inactive) | IC50 (cells [14]): > 29.9 µM (inactive) | IC50 [15]: 5.22 µM (active)
